Assay results taken from patent US11007206B2, “Cyclic boronic acid ester derivatives and therapeutic uses thereof” (Melinta Subsidiary Corp., priority 2012, dated 2021).
Where two headings read alike, the source gives them in different places.

Tests used:
[1] = Plasma pharmacokinetics of Compound I and Biapenem alone or in combination after 1.5 hour intravenous infusion in Sprague-Dawley rats (Example 3); format: in vivo; conditions: for AUC / clearance / half-life: male, Sprague-Dawley, plasma, iv, 20 mg/kg, 1.5 hour intravenous infusion; for AUC / clearance / half-life / Biapenem Calc. Conc. in plasma: rat; for Biapenem Calc. Conc. in plasma: IV infusion
Description: Example 3 provides a summary of the pharmacokinetic studies of Compound I alone or in combination with Biapenem following a single intravenous infusion dose in Sprague-Dawley rats. The pharmacokinetics of 20 mg/kg of Compound I, 20 mg/kg of Biapenem, and 20 mg/kg of Compound I in combination with 20 mg/kg of Biapenem after a 1.5 hour intravenous infusion were discussed.
Biapenem power was purchased from Hisun Pharmaceuticals. Compound I was prepared using the method described in the U.S. Publication 2012/0040932 A1. 20 mg of biapenem was dissolved in 0.1 M NaH2PO4 for a basic stock solution. 100 mg of Compound I was dissolved in 30% 1N NaOH to ˜pH 5.0. For animal studies, these stock solutions were further diluted in 0.9% saline to the appropriate concentration.
The specifications for animals used on this study were as follows: • Species: Rat • Strain: Sprague-Dawley • Gender: Male • Source: Charles River (Hollister, Calif.) • Number of Animals: 3 per study • Body Weight Range: 230-280 g at the start of the study
After acclimation, rats (n=3) were administered single 20 mg/kg intravenous infusion doses of Compound I or Biapenem alone or in combination. Doses were infused over 1.5 hours via an indwelling femoral vein cannula. Plasma (˜0.3 mL) samples were collected from each rat at designated time points up to 24 hours. The time points are shown in section 2.9. Blood samples were centrifuged within 5 min of collection at 12000 g for 5 min to obtain plasma. The plasma samples were stored on −80° C. until analyzed.
Compound I standard curves were prepared in rat plasma from 0.1 to 100 μg/mL. 50 μl aliquots of sample were placed in 1.5 mL microcentrifuge tubes. 20 μl of Compound II (10 μg/mL) was added as internal standard to each sample or standard. 20 μl of 30% trichloroacetic acid was then added to each sample or standard. The samples were mixed using a vortex mixer centrifuged for 10 min at 15,000 RPM using a tabletop centrifuge. The supernatant (approx. 120 μl) was removed and added to 100 μl of water in a 96-well plate. The samples were mixed again using a vortex mixer. 10 μl of each sample was injected onto an HPLC-MS for quantification.
The HPLC-MS conditions for Compound I analysis are as follows: • Column: Phenomenex Fusion-RP or equivalent reversed-phase column, 5 um, 50×2 mm. • Flow rate: 0.6 mL/min. • Mobile phase A: 0.1% formic acid in water. • Mobile phase B: 0.1% formic acid in acetonitrile. • Gradient: 5-60% B in 1.5 min. • Mass spectrometer: Negative ion mode with electrospray ionization. • MS/MS: Compound I-Q1-m/e=296, Q3-m/e=234. • Compound II-Q1-m/e=331, Q3-m/e=201.
Biapenem standard curves were prepared in 50% plasma-50% 1M MOPS buffer, pH=7.4 from 1 to 250 ug/mL. 20 uL of sample or standard was added into a 96-well deep well plate. Then 500 uL of 10% water-45% methanol-45% acetonitrile containing 2 ug/mL of meropenem was used as an internal standard. The plate was vortexed for 15 min. at 3,000 RPM. 50 uL of supernatant was removed and added 300 uL of water. 10 uL of samples were injected onto an HPLC-MS system for quantification.
The HPLC-MS conditions for Biaphenem analysis are as follows: • Column: Supelco Discovery HS F5 or equivalent pentafluorophenyl column, 5 um, 50×2.1 mm. • Flow rate: 0.6 mL/min. • Mobile phase A: 0.1% formic acid in water. • Mobile phase B: 0.1% formic acid in acetonitrile. • Gradient: 5-70% B in 1.9 min. • Mass spectrometer: Positive ion mode with electrospray ionization. • MS/MS: Biapenem-Q1-m/e=350.8, Q3-m/e=110.1. • meropenem-Q1-m/e=384.1, Q3-m/e=141.1
Plasma concentrations were fit using a two compartment IV infusion model (WinNonlinVersion 5.3, Pharsight Corp, Mountain View, Calif.).

[2] = test system: multi-drug resistant strains of Enterobacteriaceae, including those producing serine carbapenemases; assay: Checkerboard MIC of Biapenem alone or in combination with Compound I at fixed concentrations (Example 4); format: cell-based
Description: The evaluation of Compound I in combination with the carbapenem antibiotic Biapenem against multi-drug resistant strains of Enterobacteriaceae, including those producing serine carbapenemases were also conducted. Antibiotic potentiation activity of Compound I was studied in checkerboard MIC experiments and time-kill assays. The MICs of Biapenem were […]) against characterized and engineered isolates producing various beta-lactamases, as well as in geographically diverse panels of multi-drug resistant strains of Enterobacteriaceae (including strains that express the most relevant beta-lactamases).

P. aeruginosa = assay: Potency of Biapenem with or without Compound I against P. aeruginosa (Example 4); format: cell-based; conditions: Biapenem compared with meropenem
[3] = Sprague-Dawley rats, 20 mg/kg Compound I in combination with 20 mg/kg Biapenem
[4] = Sprague-Dawley rats, administered alone

C[C@@H](O)[C@H]1C(=O)N2C(C(=O)[O-])=C(SC3Cn4cnc[n+]4C3)[C@H](C)[C@H]12 (some centres unmarked) [Biapenem]
Plasma pharmacokinetic parameters, alone versus in combination ([1]; Sprague-Dawley rats, single intravenous infusion): unchanged | AUC [1, 3]: 10100 ± 1130 ng·h/mL | clearance [1, 3]: 33.8 mL/min/kg | half-life [1, 3]: 13.2 ± 0.6 min | AUC [1, 4]: 8950 ± 890 ng·h/mL | clearance [1, 4]: 38.2 mL/min/kg | half-life [1, 4]: 12.6 ± 0.6 min | Biapenem Calc. Conc. in plasma ([1]; sample r.p. # 7.10 (first line), 20 mg/kg Compound I in combination with 20 mg/kg Biapenem): 0.100 µg/mL | Biapenem Calc. Conc. in plasma ([1]; sample r.p. # 7.10 (second line), 20 mg/kg Compound I in combination with 20 mg/kg Biapenem): <0 µg/mL | Biapenem Calc. Conc. in plasma ([1]; sample r.p. # 7.1, 20 mg/kg Compound I in combination with 20 mg/kg Biapenem): 5.61 µg/mL | Biapenem Calc. Conc. in plasma ([1]; sample r.p. # 7.2, 20 mg/kg Compound I in combination with 20 mg/kg Biapenem): 7.98 µg/mL | Biapenem Calc. Conc. in plasma ([1]; sample r.p. # 7.3, 20 mg/kg Compound I in combination with 20 mg/kg Biapenem): 5.08 µg/mL | Biapenem Calc. Conc. in plasma ([1]; sample r.p. # 7.4, 20 mg/kg Compound I in combination with 20 mg/kg Biapenem): 6.47 µg/mL | Biapenem Calc. Conc. in plasma ([1]; sample r.p. # 7.5, 20 mg/kg Compound I in combination with 20 mg/kg Biapenem): 3.03 µg/mL | Biapenem Calc. Conc. in plasma ([1]; sample r.p. # 7.6, 20 mg/kg Compound I in combination with 20 mg/kg Biapenem): 1.89 µg/mL | Biapenem Calc. Conc. in plasma ([1]; sample r.p. # 7.7, 20 mg/kg Compound I in combination with 20 mg/kg Biapenem): 1.22 µg/mL | Biapenem Calc. Conc. in plasma ([1]; sample r.p. # 7.8, 20 mg/kg Compound I in combination with 20 mg/kg Biapenem): 0.103 µg/mL | Biapenem Calc. Conc. in plasma ([1]; sample r.p. # 7.9, 20 mg/kg Compound I in combination with 20 mg/kg Biapenem): 0.0321 µg/mL | Biapenem Calc. Conc. in plasma ([1]; sample r.p. # 8.10 (first line), 20 mg/kg Compound I in combination with 20 mg/kg Biapenem): 0.0587 µg/mL | Biapenem Calc. Conc. in plasma ([1]; sample r.p. # 8.10 (second line), 20 mg/kg Compound I in combination with 20 mg/kg Biapenem): No Peak | Biapenem Calc. Conc. in plasma ([1]; sample r.p. # 8.1, 20 mg/kg Compound I in combination with 20 mg/kg Biapenem): 4.40 µg/mL | Biapenem Calc. Conc. in plasma ([1]; sample r.p. # 8.2, 20 mg/kg Compound I in combination with 20 mg/kg Biapenem): 5.21 µg/mL | Biapenem Calc. Conc. in plasma ([1]; sample r.p. # 8.3, 20 mg/kg Compound I in combination with 20 mg/kg Biapenem): 7.28 µg/mL | Biapenem Calc. Conc. in plasma ([1]; sample r.p. # 8.4, 20 mg/kg Compound I in combination with 20 mg/kg Biapenem): 2.71 µg/mL | Biapenem Calc. Conc. in plasma ([1]; sample r.p. # 8.5, 20 mg/kg Compound I in combination with 20 mg/kg Biapenem): 1.87 µg/mL | Biapenem Calc. Conc. in plasma ([1]; sample r.p. # 8.6, 20 mg/kg Compound I in combination with 20 mg/kg Biapenem): 1.52 µg/mL | Biapenem Calc. Conc. in plasma ([1]; sample r.p. # 8.7, 20 mg/kg Compound I in combination with 20 mg/kg Biapenem): 0.828 µg/mL | Biapenem Calc. Conc. in plasma ([1]; sample r.p. # 8.8, 20 mg/kg Compound I in combination with 20 mg/kg Biapenem): 0.0353 µg/mL | Biapenem Calc. Conc. in plasma ([1]; sample r.p. # 8.9, 20 mg/kg Compound I in combination with 20 mg/kg Biapenem): 0.0393 µg/mL | Biapenem Calc. Conc. in plasma ([1]; sample r.p. # 9.10 (first line), 20 mg/kg Compound I in combination with 20 mg/kg Biapenem): 0.196 µg/mL | Biapenem Calc. Conc. in plasma ([1]; sample r.p. # 9.10 (second line), 20 mg/kg Compound I in combination with 20 mg/kg Biapenem): <0 µg/mL | Biapenem Calc. Conc. in plasma ([1]; sample r.p. # 9.1, 20 mg/kg Compound I in combination with 20 mg/kg Biapenem): 3.86 µg/mL | Biapenem Calc. Conc. in plasma ([1]; sample r.p. # 9.2, 20 mg/kg Compound I in combination with 20 mg/kg Biapenem): 7.34 µg/mL | Biapenem Calc. Conc. in plasma ([1]; sample r.p. # 9.3, 20 mg/kg Compound I in combination with 20 mg/kg Biapenem): 9.20 µg/mL | Biapenem Calc. Conc. in plasma ([1]; sample r.p. # 9.5, 20 mg/kg Compound I in combination with 20 mg/kg Biapenem): 4.90 µg/mL | Biapenem Calc. Conc. in plasma ([1]; sample r.p. # 9.6, 20 mg/kg Compound I in combination with 20 mg/kg Biapenem): 2.16 µg/mL | Biapenem Calc. Conc. in plasma ([1]; sample r.p. # 9.7, 20 mg/kg Compound I in combination with 20 mg/kg Biapenem): 1.69 µg/mL | Biapenem Calc. Conc. in plasma ([1]; sample r.p. # 9.8, 20 mg/kg Compound I in combination with 20 mg/kg Biapenem): 0.0705 µg/mL | Biapenem Calc. Conc. in plasma ([1]; sample r.p. # 9.9, 20 mg/kg Compound I in combination with 20 mg/kg Biapenem): 0.00349 µg/mL | MIC ([2]; read-out: Biapenem MICs in the presence of Compound I, in the presence of 0.3 to 5 μg/ml of Compound I, characterized strains of Enterobacteriaceae with serine carbapenemases): < 0.25 µg/mL | MIC ([2]; read-out: Biapenem MICs, Biapenem alone, KPC-producing strains including those expressing multiple classes of enzymes): 8 to 64 µg/mL | MIC ([2]; read-out: Biapenem MICs, Biapenem alone, KPC-producing strains used in the time-kill studies): 16 to 32 µg/mL | MIC90 ([2]; read-out: MIC90 of Biapenem with Compound I): 0.5 µg/mL | Potency against P. aeruginosa (P. aeruginosa): potency similar to meropenem
